Biological target: Muscarinic acetylcholine receptor M4 (Rattus norvegicus) (UniProt P08485)
Assay: antagonism at rat M4 muscarinic receptor, dose response, counter-screen for M1 allosteric modulator project, cell-based, antagonist mode (AID 860)
Settings: rat M4-expressing cells, calcium fluorescence, antagonist mode at EC80 agonist

Muscarinic acetylcholine receptor M4 (Rattus norvegicus), sequence (P08485 whole entry, looked up): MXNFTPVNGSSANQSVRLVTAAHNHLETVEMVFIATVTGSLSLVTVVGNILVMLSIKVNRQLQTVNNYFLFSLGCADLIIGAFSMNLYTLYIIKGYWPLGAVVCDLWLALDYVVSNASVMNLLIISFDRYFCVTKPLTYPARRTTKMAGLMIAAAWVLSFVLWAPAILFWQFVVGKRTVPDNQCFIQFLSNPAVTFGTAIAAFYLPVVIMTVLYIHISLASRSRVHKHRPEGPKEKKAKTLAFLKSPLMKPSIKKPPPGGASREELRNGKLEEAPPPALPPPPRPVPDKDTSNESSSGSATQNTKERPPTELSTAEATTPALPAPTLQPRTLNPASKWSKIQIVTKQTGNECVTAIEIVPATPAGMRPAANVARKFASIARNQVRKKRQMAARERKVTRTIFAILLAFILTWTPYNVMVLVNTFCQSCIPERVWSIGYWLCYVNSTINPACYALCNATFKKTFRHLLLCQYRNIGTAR

SMILES | IC50
OC(CCN1CCCC1)(c1ccccc1)C1CCCCC1 (centres undefined) | 0.0343 µM
CC1CCN(Cc2ccc(NC(=O)CC3Oc4ccccc4NC3=O)cc2)CC1 (centres undefined) | 0.0331 µM
CCN1C(=O)/C(=C\N2CCCCCC2)SC1=S | 0.759 µM
O=C(CC(c1ccccc1O)N1CCCCC1)N1CCCCC1 (centres undefined) | 0.752 µM
O=C(NC1CCN(Cc2ccccc2)CC1)C1COc2ccccc2O1 (centres undefined) | 0.411 µM
COc1ccc(N2C(=O)CSC23C(=O)N2CCCc4cccc3c42)cc1 (centres undefined) | 0.451 µM
CN(C)CCC=C1c2ccccc2CCc2ccccc21 | 1.15 µM
CCCC(CCC)C(=O)OC1C[C@H]2CC[C@@H](C1)[N+]2(C)C (some centres undefined) | 0.0294 µM
CCN(CCCCOC(=O)c1ccc(OC)c(OC)c1)C(C)Cc1ccc(OC)cc1 (centres undefined) | 0.742 µM
CN(C)CCOC(=O)C(c1ccccc1)C1(O)CCCC1 (centres undefined) | 0.0117 µM
CCN(CC)CCOC(=O)C(c1ccccc1)c1ccccc1 | 0.747 µM
Cc1nc2c(o1)CCc1ccccc1C2N1CCN(C)CC1 (centres undefined) | 0.0383 µM
Cc1ccc(C(=O)C2CCN(CC(=O)NC3CCCCC3)CC2)cc1 | 0.0727 µM
Cc1ccc2c(c1)NC(=O)C(CC(=O)Nc1ccc(CN3CCC(C)CC3)cc1)O2 (centres undefined) | 0.0716 µM
OC(CCN1CCCCC1)(c1ccccc1)c1ccccc1 | 0.111 µM
O=C(CN1CCCC(O)C1)N1c2ccccc2Sc2ccc(C(F)(F)F)cc21 (centres undefined) | 0.979 µM
CN(C)CCCOC(=O)C1c2ccccc2Oc2ccccc21 | 0.215 µM
O=C(OCCN1CCCC1)C1(c2ccccc2)CCCC1 | 0.325 µM
CCN(CC)c1ccc(C2C(C(=O)OCCOC(C)C)=C(C)NC3=C2C(=O)CCC3)cc1 (centres undefined) | 0.822 µM
CCC(C)N(CCNC(=O)CC1Oc2ccc(C)cc2NC1=O)C1CCCCC1 (centres undefined) | 0.577 µM
COC(=O)c1ccc(CSc2nc(C)nc3c2c(=O)n(C)c(=O)n3C)o1 | 1.3 µM
CN1CCC(=C2c3ccccc3C=Cc3ccccc32)CC1 | 0.136 µM
CCC(C)N(CCNC(=O)CC1Oc2ccccc2NC1=O)C1CCCCC1 (centres undefined) | 0.847 µM
CNCCCC1c2ccccc2C=Cc2ccccc21 | 0.925 µM
